Test results as given in patent publication US6852702B2, “9a-N-[N′-(phenylsulfonyl)carbamoyl] derivatives of 9-deoxo-9-dihydro-9a-aza-9a-homoerythromycin A and of 5-O-desosaminyl-9-deoxo-9-dihydro-9a-aza-9a-homoerythronolide A” (Pliva D.D., priority 2002, dated 2005).
Values after ≈ are worked out from the molar mass of the structure shown.

The molecules below were run on Streptococcus pneumoniae ATCC 6305 (assay: MIC by dilution method on microplates (NCCLS M7-A2)). Details: in vitro.
Format: cell-based
Method: Minimal inhibitory concentrations (MIC, in μg/ml) are determined by dilution method on microplates according to recommendations of National Committee for Clinical Laboratory Standards (NCCLS, M7-A2). So e.g. the minimal inhibitory concentration on Streptococcus pneumoniae ATCC 6305 for the compounds from Examples 1 and 4 is 2 μg/ml and for compounds from Examples 2 and 3 is 1 μg/ml. Thus, they can be used for disinfection of rooms, surgical instruments and people as well as therapeutic agents in the treatment of infective diseases in animals, specially mammals, or humans that are caused by a wide spectrum of gram-positive bacteria, microorganisms or generally pathogenic microorganisms which are sensitive to the compounds of the formula 1. For this purpose the above compounds or their pharmaceutically acceptable salts with acids may be used orally in usual doses from 0.2 mg/kg body weight per day to about 250 mg/kg/day, most frequently from 5-50 mg/kg/day, or parenterally in the form of subcutaneous or intramuscular injections.

minimal inhibitory concentration (MIC)	Structure (SMILES)
1 µg/mL (≈ 1.07 µM)	CCC1OC(=O)C(C)C(OC2CC(C)(OC)C(O)C(C)O2)C(C)C(OC2OC(C)CC(N(C)C)C2O)C(C)(O)CC(C)CN(C(=O)NS(=O)(=O)c2ccc(C)cc2)C(C)C(O)C1(C)O (stereo not shown) [Example 2, 9-Deoxo-9-dihydro-9a-N-[N′-(p-toluenesulfonyl)carbamoyl]-9a-aza-9a-homoerythromycin A]
2 µg/mL (≈ 2.18 µM)	CCC1OC(=O)C(C)C(OC2CC(C)(OC)C(O)C(C)O2)C(C)C(OC2OC(C)CC(N(C)C)C2O)C(C)(O)CC(C)CN(C(=O)NS(=O)(=O)c2ccccc2)C(C)C(O)C1(C)O (stereo not shown) [Example 4, 9-Deoxo-9-dihydro-9a-N-[N′-(benzenesulfonyl)carbamoyl]-9a-aza-9a-homoerythromycin A]
1 µg/mL (≈ 1.07 µM)	CCC1OC(=O)C(C)C(OC2CC(C)(OC)C(O)C(C)O2)C(C)C(OC2OC(C)CC(N(C)C)C2O)C(C)(O)CC(C)CN(C(=O)NS(=O)(=O)c2ccccc2C)C(C)C(O)C1(C)O (stereo not shown) [Example 3, 9-Deoxo-9-dihydro-9a-N-[N′-(o-toluenesulfonyl)carbamoyl]-9a-aza-9a-homoerythromycin A]

Structure (SMILES)	minimal inhibitory concentration (MIC)
CCC1OC(=O)C(C)C(OC2CC(C)(OC)C(O)C(C)O2)C(C)C(OC2OC(C)CC(N(C)C)C2O)C(C)(O)CC(C)CN(C(=O)NS(=O)(=O)c2ccc(Cl)cc2)C(C)C(O)C1(C)O (stereo not shown) [Example 1, 9-Deoxo-9-dihydro-9a-N-[N′-(4-chlorobenzenesufonyl)carbamoyl]-9a-aza-9a-homoerythromycin A]	2 µg/mL (≈ 2.1 µM)
